Measurements published in PubChem BioAssay AID248 (DTP/NCI, 2004).
Where “and” joins values, the source holds several entries; their conditions need not be identical. Equal values may be shown once. Inconclusive results and toxic doses are left out.

System: L1210 leukemia ip in BDF1 mice, survival T/C
Experiment: NCI In Vivo Anticancer Drug Screen. Data for tumor model L1210 Leukemia (intraperitoneal) in B6D2F1 (BDF1) mice
Conditions: endpoint: mean survival time, higher = longer survival
Procedure, shortened: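 Tumor cells were implanted, animals were treated, and survival was followed. The result divides the treated measurement by the vehicle-control measurement.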

[1] = dose: 100.0 mg/kg/injection, schedule: Q01DX001 (ip), vehicle: carboxymethylcellulose (CMC)
[2] = dose: 200.0 mg/kg/injection, schedule: Q01DX001 (ip), vehicle: carboxymethylcellulose (CMC)
[3] = dose: 400.0 mg/kg/injection, schedule: Q01DX001 (ip), vehicle: carboxymethylcellulose (CMC)
[4] = dose: 100.0 mg/kg/injection, schedule: Q04DX003 (ip), vehicle: Klucel (hydroxypropylcellulose) (HPC)
[5] = dose: 200.0 mg/kg/injection, schedule: Q04DX003 (ip), vehicle: Klucel (hydroxypropylcellulose) (HPC)
[6] = dose: 400.0 mg/kg/injection, schedule: Q04DX003 (ip), vehicle: Klucel (hydroxypropylcellulose) (HPC)
[7] = dose: 12.5 mg/kg/injection, schedule: Q01DX009 (ip), vehicle: Klucel (hydroxypropylcellulose) (HPC)
[8] = dose: 25.0 mg/kg/injection, schedule: Q01DX009 (ip), vehicle: Klucel (hydroxypropylcellulose) (HPC)
[9] = dose: 25.0 mg/kg/injection, schedule: Q01DX009 (ip), vehicle: saline
[10] = dose: 100.0 mg/kg/injection, schedule: Q01DX009 (ip), vehicle: Klucel (hydroxypropylcellulose) (HPC)
[11] = dose: 100.0 mg/kg/injection, schedule: Q04DX003 (ip), vehicle: saline
[12] = dose: 200.0 mg/kg/injection, schedule: Q01DX009 (ip), vehicle: Klucel (hydroxypropylcellulose) (HPC)
[13] = dose: 200.0 mg/kg/injection, schedule: Q04DX003 (ip), vehicle: saline
[14] = dose: 400.0 mg/kg/injection, schedule: Q01DX009 (ip), vehicle: Klucel (hydroxypropylcellulose) (HPC)
[15] = dose: 400.0 mg/kg/injection, schedule: Q04DX003 (ip), vehicle: saline
[16] = dose: 100.0 mg/kg/injection, schedule: Q04DX003 (ip), vehicle: saline with Tween-80
[17] = dose: 200.0 mg/kg/injection, schedule: Q04DX003 (ip), vehicle: saline with Tween-80
[18] = dose: 400.0 mg/kg/injection, schedule: Q04DX003 (ip), vehicle: saline with Tween-80
[19] = dose: 100.0 mg/kg/injection, schedule: Q01DX001 (ip), vehicle: saline
[20] = dose: 200.0 mg/kg/injection, schedule: Q01DX001 (ip), vehicle: saline
[21] = dose: 400.0 mg/kg/injection, schedule: Q01DX001 (ip), vehicle: saline

SMILES: COC(=O)c1cc2c(cc1O)CCCC2
- T/C (dose: 50.0 mg/kg/injection, schedule: Q01DX001 (ip), vehicle: carboxymethylcellulose (CMC)): 107 % of control
- T/C [1]: 113 % of control
- T/C [2]: 107 % of control
- T/C [3]: 107 % of control

SMILES: O=c1ccc2cc(Br)ccc2o1
- T/C [4]: 97 % of control
- T/C [5]: 95 % of control
- T/C [6]: 97 % of control

SMILES: O=S(c1ccccc1)c1c(Cl)c(Cl)nc(Cl)c1Cl (configuration not stated)
- T/C (dose: 6.25 mg/kg/injection, schedule: Q01DX009 (ip), vehicle: Klucel (hydroxypropylcellulose) (HPC)): 104 % of control
- T/C [7]: 106 % of control
- T/C [8]: 104 % of control
- T/C [4]: 105 % of control
- T/C [5]: 90 % of control

SMILES: COC(=O)C1(N)CCCC1
- T/C (dose: 11.0 mg/kg/injection, schedule: Q01DX Z (ip), vehicle: carboxymethylcellulose (CMC)): 94 % of control
- T/C (dose: 22.0 mg/kg/injection, schedule: Q01DX Z (ip), vehicle: carboxymethylcellulose (CMC)): 107 % of control
- T/C [9]: 107 % of control
- T/C (dose: 30.0 mg/kg/injection, schedule: Q01DX009 (ip), vehicle: saline): 108 % of control
- T/C (dose: 30.0 mg/kg/injection, schedule: Q01DX Z (ip), vehicle: saline): 116 % of control
- T/C (dose: 44.0 mg/kg/injection, schedule: Q01DX009 (ip), vehicle: saline): 121 % of control
- T/C (dose: 45.0 mg/kg/injection, schedule: Q01DX Z (ip), vehicle: saline): 118 % of control
- T/C (dose: 50.0 mg/kg/injection, schedule: Q01DX009 (ip), vehicle: saline): 109 % of control
- T/C [10]: 95 % of control
- T/C [4]: 104 % of control and 113 % of control
- T/C [11]: 102 % of control
- T/C (dose: 150.0 mg/kg/injection, schedule: Q01DX009 (ip), vehicle: saline): 95 % of control
- T/C (dose: 150.0 mg/kg/injection, schedule: Q01DX Z (ip), vehicle: saline): 104 % of control
- T/C [12]: 104 % of control
- T/C (dose: 200.0 mg/kg/injection, schedule: Q01DX009 (ip), vehicle: saline): 119 % of control and 120 % of control
- T/C [5]: 121 % of control and 124 % of control
- T/C [13]: 118 % of control
- T/C (dose: 300.0 mg/kg/injection, schedule: Q01DX Z (ip), vehicle: carboxymethylcellulose (CMC)): 105 % of control and 115 % of control
- T/C [14]: 121 % of control
- T/C (dose: 400.0 mg/kg/injection, schedule: Q01DX009 (ip), vehicle: saline): 98 % of control and 102 % of control
- T/C (dose: 400.0 mg/kg/injection, schedule: Q01DX Z (ip), vehicle: carboxymethylcellulose (CMC)): 113 % of control
- T/C [15]: 152 % of control
- T/C (dose: 500.0 mg/kg/injection, schedule: Q01DX Z (ip), vehicle: carboxymethylcellulose (CMC)): 110 % of control

SMILES: N#CC1(NC(=O)CCl)CCCCC1
- T/C (dose: 100.0 mg/kg/injection, schedule: Q01DX001 (ip), vehicle: other): 96 % of control
- T/C (dose: 200.0 mg/kg/injection, schedule: Q01DX001 (ip), vehicle: other): 91 % of control

SMILES: Cn1c(=O)c2c(ncn2CC(O)CO)n(C)c1=O (configuration not stated) (tested in a mixture with another compound)
- T/C [16]: 101 % of control
- T/C [17]: 98 % of control
- T/C [18]: 95 % of control

SMILES: O=C(O)c1cccnc1Cl
- T/C (dose: 50.0 mg/kg/injection, schedule: Q01DX001 (ip), vehicle: saline): 96 % of control
- T/C [19]: 93 % of control
- T/C [4]: 96 % of control
- T/C [16]: 105 % of control
- T/C [20]: 100 % of control
- T/C [5]: 97 % of control
- T/C [17]: 105 % of control
- T/C [21]: 106 % of control
- T/C [6]: 91 % of control
- T/C [18]: 106 % of control

SMILES: Cc1ccc(NC(=S)NC(=O)c2ccco2)cc1Cl
- T/C [10]: 101 % of control
- T/C [4]: 102 % of control
- T/C [12]: 106 % of control
- T/C [5]: 98 % of control
- T/C [14]: 102 % of control
- T/C [6]: 98 % of control

SMILES: CC(=O)OC1CCC(NC(=O)N(CCCl)N=O)CC1 (configuration not stated)
- T/C (dose: 15.0 mg/kg/injection, schedule: Q01DX001 (ip), vehicle: other): 225 % of control
- T/C (dose: 30.0 mg/kg/injection, schedule: Q01DX001 (ip), vehicle: other): 352 % of control
- T/C (dose: 62.0 mg/kg/injection, schedule: Q01DX001 (ip), vehicle: other): 244 % of control

SMILES: CS(=O)(=O)OCCN(CCOS(C)(=O)=O)c1ccc(/C=N/Nc2ccc([N+](=O)[O-])cc2[N+](=O)[O-])cc1
- T/C [19]: 92 % of control
- T/C (dose: 100.0 mg/kg/injection, schedule: Q01DX009 (ip), vehicle: saline with Tween-80): 96 % of control
- T/C [11]: 91 % of control
- T/C (dose: 200.0 mg/kg/injection, schedule: Q01DX009 (ip), vehicle: saline with Tween-80): 91 % of control
- T/C [13]: 90 % of control
- T/C [21]: 89 % of control
- T/C (dose: 400.0 mg/kg/injection, schedule: Q01DX009 (ip), vehicle: saline with Tween-80): 93 % of control
- T/C [15]: 87 % of control

SMILES: CC(NC(=O)Nc1ccccc1Cl)c1ccccc1 (configuration not stated)
- T/C [10]: 105 % of control
- T/C [12]: 105 % of control
- T/C [14]: 102 % of control

SMILES: CC1CC(=O)NN1C(=S)Nc1ccccc1 (configuration not stated)
- T/C [16]: 102 % of control
- T/C [17]: 98 % of control
- T/C [18]: 100 % of control

SMILES: CC(=O)C1C=NCC(C)(C)N=CC(C(C)=O)C(C)=NCCCN=C1C.[Ni] (configuration not stated)
- T/C [7]: 95 % of control
- T/C (dose: 12.5 mg/kg/injection, schedule: Q04DX003 (ip), vehicle: Klucel (hydroxypropylcellulose) (HPC)): 96 % of control
- T/C [8]: 100 % of control
- T/C (dose: 25.0 mg/kg/injection, schedule: Q04DX003 (ip), vehicle: Klucel (hydroxypropylcellulose) (HPC)): 91 % of control
- T/C (dose: 50.0 mg/kg/injection, schedule: Q01DX009 (ip), vehicle: Klucel (hydroxypropylcellulose) (HPC)): 97 % of control
- T/C (dose: 50.0 mg/kg/injection, schedule: Q04DX003 (ip), vehicle: Klucel (hydroxypropylcellulose) (HPC)): 102 % of control

SMILES: CCCCCCCCCCCCS
- T/C [1]: 103 % of control
- T/C [2]: 105 % of control
- T/C [3]: 103 % of control

SMILES: C/C(=N/NC(N)=S)c1cccc(C(F)(F)F)c1
- T/C (dose: 37.5 mg/kg/injection, schedule: Q01DX009 (ip), vehicle: Klucel (hydroxypropylcellulose) (HPC)): 97 % of control
- T/C (dose: 75.0 mg/kg/injection, schedule: Q01DX009 (ip), vehicle: Klucel (hydroxypropylcellulose) (HPC)): 95 % of control

SMILES: O=C(NC(=O)c1ccc([N+](=O)[O-])cc1)OCCCl
- T/C (dose: 100.0 mg/kg/injection, schedule: Q01DX001 (ip), vehicle: Klucel (hydroxypropylcellulose) (HPC)): 92 % of control
- T/C (dose: 200.0 mg/kg/injection, schedule: Q01DX001 (ip), vehicle: Klucel (hydroxypropylcellulose) (HPC)): 97 % of control
- T/C (dose: 400.0 mg/kg/injection, schedule: Q01DX001 (ip), vehicle: Klucel (hydroxypropylcellulose) (HPC)): 105 % of control

SMILES: CC(C)C1CCC(/C=C(\C#N)C2CCC([N+](=O)[O-])CC2)CC1 (configuration not stated)
- T/C (dose: 100.0 mg/kg/injection, schedule: Q04DX002 (ip), vehicle: other): 95 % of control
- T/C (dose: 200.0 mg/kg/injection, schedule: Q04DX002 (ip), vehicle: other): 95 % of control
- T/C (dose: 400.0 mg/kg/injection, schedule: Q04DX002 (ip), vehicle: other): 92 % of control

SMILES: CC(=O)Nc1cc([N+](=O)[O-])c(C)c([N+](=O)[O-])c1
- T/C [16]: 104 % of control
- T/C [17]: 97 % of control
- T/C [18]: 97 % of control

SMILES: CC(=O)OC1=C(C)C2=C3OC(=O)C(C)=C3CC[C@@]2(C)CC1
- T/C [19]: 97 % of control
- T/C [20]: 101 % of control
- T/C [21]: 95 % of control

SMILES: Nc1nc(N)c2nc(CBr)cnc2n1
- T/C (dose: 6.25 mg/kg/injection, schedule: Q01DX009 (ip), vehicle: saline): 105 % of control
- T/C (dose: 12.5 mg/kg/injection, schedule: Q01DX009 (ip), vehicle: saline): 88 % of control
- T/C [9]: 115 % of control

SMILES: O=S(=O)(NC(=S)Nc1ccc(Cl)cc1)c1ccccc1
- T/C [16]: 110 % of control
- T/C [17]: 107 % of control
- T/C [18]: 93 % of control
